Reference: patent US8946229B2, “Formulations” (UCB, Inc., priority 2002, dated 2015)

Test: Reactivity of polyols with active compounds of formula I
Type: physicochemical

## OC[C@H]1O[C@@H](O[C@H]2[C@H](O)[C@@H](O)C(O)O[C@@H]2CO)[C@H](O)[C@@H](O)[C@H]1O (stereo partly shown) [Lactose]
  Reactivity with the active compounds of formula I (undesired reaction products): practically no reactivity
